What is called melting point is the temperature of the solid-liquid transition.

Turning to `Cc1nnc2n1-c1ccc(C#C[Si](C)(C)C)cc1C(c1ccccc1)=NC2`, the melting point lay in the range of 229 to 233 °C.
In the case of `CN1C(C)(C)CC(OP2OCC3(CO2)COP(OC2CC(C)(C)N(C)C(C)(C)C2)OC3)CC1(C)C` (stereo not given) it was 106 °C; in that of `CC(C)CNC(=O)COc1ccc(C2=NNC(=O)NC2C)cc1Cl` (stereo not given), 205 to 206 °C; in that of `CC(C)Oc1ccccc1-c1ccoc1C(=O)NNC(=O)c1ccc(O)c(C#N)c1`, 128 to 130 °C.
In the case of `CCOC(=O)C1Oc2cccnc2NC1=O` (stereo not given) it was 160 to 162 °C.
In the case of `C=CCN1CCCC1CNC(=O)c1cc(S(N)(=O)=O)cc2c1OCCO2` (stereo not given), the melting point fell in the range of 143 to 144 °C.
`COc1cccc(S(=O)(=O)N2CCc3cc(OCc4ccccc4)c(OC)cc3C2)c1`: the melting point is 124 to 125 °C.
The figure for `CCCCCC(C)N(Cc1ccc(OCCC(C)C)cc1)C(Nc1ccc(OC)cc1OC)=C1C(=O)COC1=O` (stereo not given) is 125 to 127 °C; for `COC(=O)Cc1ccc(OCCNC(=O)C2Cc3ccccc3N2S(=O)(=O)c2ccc(-c3cc(Cl)ccc3Cl)cc2)cc1` (stereo not given) it is 61 to 65 °C; for `O=C(NO)c1ccc(CNC(=O)c2[nH]c(-c3ccccc3)cc2-c2ccc(F)c(F)c2)cc1` it is 148 to 150 °C.
The figure for `CCOC(=O)c1c(C)cc2nc(CO)n(-c3ccc(OC)c(OC)c3)c(=O)c2c1C` is 181 to 182 °C; for `Cc1cc(NC(=O)C(F)(c2ccccc2)c2nnn(CCCCCCCCCCCC(F)F)n2)c(C)c(C)c1O` (stereo not given) it is 96 °C; for `CC(C)(C)OC(=O)NCCc1c[nH]c2ccc(CCO)cc12` it is 204 to 206 °C.
The figure for `O=C1C(=O)c2ccccc2C2=C1SCC1(CCN(CCCOc3ccccc3)CC1)O2` is 127 to 129 °C.
`Cc1ccc(S(=O)(=O)OC2=C(Br)C(=O)c3ccc4c(c3C2=O)CCC(C)(C)O4)cc1` had a melting point of 168 to 170 °C.
For `CNc1ccccc1C(=O)Cc1nnn[nH]1`, the melting point lay in the range of 199 to 201 °C.
In the case of `CS(=O)(=O)c1ccccc1OCCF` it was 67 to 69 °C.
In the case of `CNC(=O)c1ccc(C=CC(=O)NCC(=O)N(C)c2ccc(C)c(CO)c2C)cc1` it was 261 to 263 °C; in that of `COc1cc(C=O)ccc1OCc1ccc2ccccc2c1`, 107 to 108 °C; in that of `COc1ccccc1N1CCN(CCN2C(=O)c3ccccc3C2=O)CC1`, 76 to 81 °C.
In the case of `O=C(OCc1ccccc1)N1CCC(NCC(O)Cn2ccnc2[N+](=O)[O-])C(O)C1` (stereo not given), the melting point is 140 to 142 °C.
The figure for `O=C1NCCc2c1c1cccc3c1n2CC3` is 265 to 267 °C; for `COc1ccc(C(=O)N(c2ccccc2)c2ccc(OCCCN(C)C)cc2)cc1` it is 111 to 115 °C; for `Nc1ccc(C(=O)N2CCCC(=O)c3sccc32)cc1` it is 216 to 218 °C.
The figure for `NC(=O)CNC(=O)c1cccc(-c2ccc3c(c2)N(c2ccc(Cl)cc2Cl)CC3)c1` is 184 to 186 °C; for `COC(=O)CCCc1cc2nc(C(F)(F)F)ccc2n1S(=O)(=O)c1cccc(OC(F)(F)F)c1` it is 72 °C; for `O=C1c2ccccc2S(=O)(=O)c2cc(C3=NCCN3)ccc21` it is 241 to 242 °C.
The figure for `CCOc1ccc2[nH]ccc2c1` is 144 to 146 °C; for `COc1c(C)c(C)c(OC)c(CO)c1C` it is 121 to 122 °C.
Consider `Nc1nc(N)c2nc(-c3cccc(O)c3)cnc2n1`, for which the melting point was > 300 °C.
In turn, `CN1CCC(=C2c3sccc3C=Cn3ccnc32)CC1` had a melting point of 152 °C.
The figure for `N#Cc1nc(Cl)sc1Cl` is 56.5 to 57 °C; for `O=C(N[C@H]1CCCNC1=O)c1ccc(F)c(F)c1` it is 202 to 204 °C; for `CNC(=O)c1cccc(NC(=O)Cc2ccc(F)cc2)c1` it is 155 to 156 °C.
In the case of `Cc1cc2nc(C)n(COC(=O)C(C)(C)C)c(=O)c2cc1CBr` it was 149 to 152 °C.

These data come from a melting point compilation (Tetko et al.; mined from patent text by program, amines drawn as free bases though some values may be those of a salt).
